Measured values: patent US20110144014A1, “CYTOKINE RECEPTOR MODULATORS AND USES THEREOF” (CENTRE HOSPITALIER UNIVERSITAIRE SAINTE-JUSTINE, priority 2005, published 2011)
Marks after values point to notes of the source that are not given here. Where a SMILES comes first, the peptide text is derived from it. [ ]: non-standard residue; d: D form.

Test system: TNBS-induced colon inflammation
Assay: TNBS rat model of inflammatory bowel disease
Type: in vivo
Description: Colon inflammation was induced by intra-rectal/colon administration of the hapten trinitrobenzene sulphonic acid (TNBS) on male Sprague-Dawley rats (175-200 g) (Bouma, Nature Rev, 2003; Morris, Gastroenterology, 1989). Animals were anesthetized with isoflurane and TNBS dissolved in 50% ethanol (vol/vol). 120 mg/ml (TNBS) was administered into the colon (total volume of 0.25 ml per rat) using a polyethylene tube (PE50). The cannula was inserted at 8 cm from the anus and kept in place for at least 15 minutes after TNBS administration in order to prevent expulsion of the solution. Two hours prior to TNBS administration, the API-101 derivative API-101.10 (1.1 mg/kg) or 0.9% saline was administered intravenously via the caudal vein (total volume of 0.3 ml). […] A third group (control) was not injected with TNBS. Six days after administration of TNBS, rats were killed by CO2 inhalation. Day 6 was chosen as an endpoint because by day 7 spontaneous tissue regeneration begins and this can mask the therapeutic effect of the tested peptide or peptide derivative. Colon was removed and examined macroscopically (adhesions, ulcerations, discoloration and bleeding) and histologically (neutrophil infiltration, epithelial injury, crypt distortion and ulcerations) (Anthony et al., Int. J. Exp. Path. 76:215-224, 1995; Padol et al., Eur. J. of Gastroenterol. Hepatol. 12:257-265, 2000; Dieleman et al., […], 1997; Torres et al., Digestive Diseases and Sciences 44:2523-2529, 1999). Two animals per group were studied.
Histological transversal sections were cut at 4-6 cm from the proximal anal region and colored with the hematoxylin/eosin method. The TNBS model of inflammatory bowel disease reproduces the inflammatory characteristics and tissue injuries of Crohn's disease (e.g., in humans). Morphologically, the colon of the animals injected with TNBS presented thickening, edema, and discoloration of the intestinal wall indicating a significant inflammation. […] Histological features consisted of neutrophil infiltration into the epithelial layer and crypts, epithelial lining injury as well as the loss of crypts. […] The organization and integrity of the crypts in the API-101.10-treated colon is conserved even if there is still some inflammation (half the dose of API-101.10 was used as compared to the macroscopic analysis experiment).
Colon inflammation was induced by intra-rectal/colon administration of the hapten trinitrobenzene sulphonic acid (TNBS) as described above. Two hours prior to TNBS administration, peptides, peptidomimetics or 0.9% saline were administered intravenously (iv) via the caudal vein (various concentrations of mg/kg/d) (total volume of 0.3 ml). […] A third group (control) was not injected with TNBS. For intermittent administration, fifteen minutes after TNBS administration, 101.10 (0.25-1 mg/kg), 101.107 (0.2 mg/kg), 101.113 (0.05-1 mg/kg) were administered by intermittent intraperitoneal injection (ip). Also, these IL-1R antagonists were given twice a day (BID); Remicade® (anti-TNFα) (10 mg/kg) and dexamethasone (0.75 mg/kg) were administered intraperitoneally but only once a day (qd). The intrarectal administration (ir) of 101.10, 101.113 (1 and 2.5 mg/kg), and 5-ASA (50 mg/kg) was done one hour after TNBS administration, and twice a day, except for 5-ASA which is once a day. Finally, 101.10 (1-5 mg/kg) was also administered orally by gavage (po), twice a day. Forty-eight hours after administration of TNBS, rats were killed by CO2 inhalation. The colon was removed and assessed macroscopically (adhesions, ulcerations, discoloration and bleeding) and histologically (neutrophil infiltration, epithelial injury, crypt distortion and ulcerations). One to seven animals per group were studied, according to treatments. Myeloperoxidase (MPO) activity was measured on tissue lysates.

[1] = continuous infusion (ip), 0.25 mg/kg/d
[2] = continuous infusion (ip), 0.75 mg/kg/d
[3] = continuous infusion (ip), 2.2 mg/kg/d
[4] = continuous infusion (ip), 4.0 mg/kg/d
[5] = intermittent injection (ip), 0.25-BID mg/kg/d
[6] = intermittent injection (ip), 0.50-BID mg/kg/d
[7] = intermittent injection (ip), 1.0-BID mg/kg/d
[8] = intermittent injection (ip), 1.0-BID mg/kg/d, 12 h after TNBS
[9] = intermittent injection (ip), 1.0-qd mg/kg/d
[10] = intrarectal administration, 2.5-BID mg/kg/d
[11] = intrarectal administration, + PEG-400, 1.0-BID mg/kg/d
[12] = intrarectal administration, + PEG-400, 2.5-BID mg/kg/d
[13] = oral administration, 5.0-BID mg/kg/d
[14] = oral administration, + PEG-400, 1.0-BID mg/kg/d
[15] = oral administration, + PEG-400, 2.5-BID mg/kg/d
[16] = oral administration, + PEG-400, 5.0-BID mg/kg/d

CC(C)C[C@@H](NC(=O)[C@@H](CCC(=O)O)NC(=O)[C@H](NC(=O)[C@H](NC(=O)[C@@H](Cc1ccc(O)cc1)NC(=O)[C@H](N)CCCNC(=N)N)[C@H](C)O)C(C)C)C(=O)N[C@H](C)C(N)=O [API-101.10, RYTVELA] (H-[dR][dY][dT][dV][dE][dL][dA]-NH2; N-terminus and C-terminus assumed)
TNBS-induced colon damage (1.1 mg/kg iv 2 h before TNBS, then 2.2 mg/kg continuous ip infusion, day 6): prevented TNBS-induced colon damage
Histologic evaluation (median score) [1]: 2 (Small ulcer (<5 crypts))
MPO (% of TNBS + Saline) [1]: 34 % of TNBS + Saline
Histologic evaluation (median score) [2]: 4.4 median score
MPO (% of TNBS + Saline) [2]: 54 % of TNBS + Saline
Histologic evaluation (median score) [3]: 2 (Small ulcer (<5 crypts))
MPO (% of TNBS + Saline) [3]: 46 ± 22 % of TNBS + Saline
Histologic evaluation (median score) [4]: 2 (Small ulcer (<5 crypts))
MPO (% of TNBS + Saline) [4]: 82 % of TNBS + Saline
inflammatory features and MPO activity (gavage twice a day, 5.0 mg/kg/d): substantially reduces
Histologic evaluation (median score) [5]: 2.25 median score
MPO (% of TNBS + Saline) [5]: 85 % of TNBS + Saline
Macroscopic evaluation (median score) [5]: 0.87 median score
Histologic evaluation (median score) [6]: 3 (Medium ulcer (5-10 crypts))
MPO (% of TNBS + Saline) [6]: 126 % of TNBS + Saline
Macroscopic evaluation (median score) [6]: 0.87 median score
Histologic evaluation (median score) [7]: 1.25 median score
MPO (% of TNBS + Saline) [7]: 47 ± 9 % of TNBS + Saline
Macroscopic evaluation (median score) [7]: 0.8 ± 0.1 median score
Histologic evaluation (median score) [8]: 2.6 median score
Macroscopic evaluation (median score) [8]: 1.1 ± 0.1 median score
MPO (% of TNBS + Saline) (intermittent injection (ip), 1.0-BID mg/kg/d, 12 h after TNBS, leucocyte infiltration has already occurred): 123 ± 18 % of TNBS + Saline
Histologic evaluation (median score) [9]: 5 (Marked denudation (>20 crypts))
MPO (% of TNBS + Saline) [9]: 67 % of TNBS + Saline
Macroscopic evaluation (median score) [9]: 1.63 median score
MPO activity, macroscopic and histologic score (intraperitoneal osmotic pumps (continuous infusion), superior or equivalent to Kineret): marked reductions
MPO (% of TNBS + Saline) [10]: 111 ± 25 % of TNBS + Saline
Macroscopic evaluation (median score) [10]: 1.4 ± 0.1 median score
Histologic evaluation (median score) [11]: 3.2 median score
MPO (% of TNBS + Saline) [11]: 110 % of TNBS + Saline
Macroscopic evaluation (median score) [11]: 1.25t median score
Histologic evaluation (median score) [12]: 3.9 median score
MPO (% of TNBS + Saline) [12]: 59 % of TNBS + Saline
Macroscopic evaluation (median score) [12]: 1.17^† median score
reduction of MPO activity (intrarectally, 2.5 mg/kg/d): 50%
Histologic evaluation (median score) [13]: 2.25 median score
MPO (% of TNBS + Saline) [13]: 65 % of TNBS + Saline
Macroscopic evaluation (median score) [13]: 0.75 median score
Histologic evaluation (median score) [14]: 3.5 median score
MPO (% of TNBS + Saline) [14]: 167 % of TNBS + Saline
Macroscopic evaluation (median score) [14]: 1.0 median score
Histologic evaluation (median score) [15]: 3.5 median score
MPO (% of TNBS + Saline) [15]: 176 % of TNBS + Saline
Macroscopic evaluation (median score) [15]: 1.25 median score
Histologic evaluation (median score) [16]: 3.6 median score
MPO (% of TNBS + Saline) [16]: 57 % of TNBS + Saline
Macroscopic evaluation (median score) [16]: 1.5 median score
efficacy of intermittent administration (twice a day, surpasses dexamethasone, Remicade and 5-ASA): dose-dependent efficacy
